# Measurements reported in paper PMC12495326 (The Journal of Biological Chemistry, 2025).
# Biological target: T1, recombinant hDHFR (human dihydrofolate reductase) (Homo sapiens, UniProt P00374)
# T1 construct: gene DHFR
# T1 sequence (P00374 1-187): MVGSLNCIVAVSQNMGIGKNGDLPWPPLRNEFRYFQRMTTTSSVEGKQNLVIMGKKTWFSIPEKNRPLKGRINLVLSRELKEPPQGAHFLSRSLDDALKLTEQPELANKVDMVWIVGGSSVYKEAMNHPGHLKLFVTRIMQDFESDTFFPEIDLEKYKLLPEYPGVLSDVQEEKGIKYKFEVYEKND
# Experiment: in vitro DHFR enzyme activity assay, dose-response
# Assay type: biochemical
structure (smiles),measurement,value
CCc1nc(N)nc(N)c1-c1cc(Cl)cc(Cl)c1 [WCDD114],IC50,141 nM
